Results taken from ChEMBL document CHEMBL1201862, “PubChem BioAssay data set” (2004).
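Tested at 5 concentrations; 48 h exposure; 96-well plates; endpoints linearly interpolated, else capped at highest concentration. The concentration for 50% growth inhibition is given as GI50.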 Active and inactive are the calls of the source. Rule as the data show it: active = GI50 up to about 1.1 µM and inactive = higher.

Legend:
Experiment in all cases: NCI anticancer screen, dose series, 48 h
[1] = test system: 786-0
[2] = test system: A498
[3] = test system: A549
[4] = test system: ACHN
[5] = test system: BT-549
[6] = test system: CAKI-1
[7] = test system: CCRF-CEM
[8] = test system: COLO 205
[9] = test system: DU-145
[10] = test system: EKVX
[11] = test system: HCC 2998
[12] = test system: HCT-116
[13] = test system: HCT-15
[14] = test system: HL-60
[15] = test system: HOP-62
[16] = test system: HOP-92
[17] = test system: HT-29
[18] = test system: Hs-578T
[19] = test system: IGROV-1
[20] = test system: K562
[21] = test system: KM12
[22] = test system: LOX IMVI
[23] = test system: M14
[24] = test system: MCF7
[25] = test system: MDA-MB-231
[26] = test system: MDA-MB-435
[27] = test system: MDA-N
[28] = test system: MOLT-4
[29] = test system: NCI-H226
[30] = test system: NCI-H23
[31] = test system: NCI-H460
[32] = test system: NCI-H522
[33] = test system: NCI/ADR-RES
[34] = test system: OVCAR-4
[35] = test system: OVCAR-5
[36] = test system: OVCAR-8
[37] = test system: PC-3
[38] = test system: RXF 393
[39] = test system: SF-268
[40] = test system: SF-295
[41] = test system: SF-539
[42] = test system: SK-MEL-28
[43] = test system: SK-MEL-2
[44] = test system: SK-MEL-5
[45] = test system: SN12C
[46] = test system: SNB-19
[47] = test system: SNB-75
[48] = test system: SR
[49] = test system: SW-620
[50] = test system: T47D
[51] = test system: TK-10
[52] = test system: U-251
[53] = test system: UACC-257
[54] = test system: UACC-62
[55] = test system: UO-31
[56] = test system: Malme-3M
[57] = test system: OVCAR-3
[58] = test system: RPMI-8226
[59] = test system: SK-OV-3

Q: Which GI50 [1] does the source give for O=c1[nH]nc(Nc2ccccc2)c2nnn(Cc3ccccc3)c12 here?
A: 25.3 µM (inactive)

Q: And the GI50 [2]?
A: > 100 µM (inactive)

Q: What about the GI50 [3] of the same compound?
A: > 100 µM (inactive)

Q: And the GI50 [4]?
A: > 100 µM (inactive)

Q: And the GI50 [5]?
A: > 100 µM (inactive)

Q: What about the GI50 [6] of the same compound?
A: > 100 µM (inactive)

Q: What about the GI50 [7] of the same compound?
A: > 100 µM (inactive)

Q: What about the GI50 [8] of the same compound?
A: > 100 µM (inactive)

Q: And the GI50 [9]?
A: > 100 µM (inactive)

Q: What about the GI50 [10] of the same compound?
A: > 100 µM (inactive)

Q: What about the GI50 [11] of the same compound?
A: > 100 µM (inactive)

Q: And the GI50 [12]?
A: 83.9 µM (inactive)

Q: And the GI50 [13]?
A: > 100 µM

Q: And the GI50 [14]?
A: > 100 µM (inactive)

Q: And the GI50 [15]?
A: 4.52 µM (inactive)

Q: And the GI50 [16]?
A: 57 µM (inactive)

Q: What about the GI50 [17] of the same compound?
A: > 100 µM (inactive)

Q: And the GI50 [18]?
A: 17.6 µM (inactive)

Q: What about the GI50 [19] of the same compound?
A: > 100 µM (inactive)

Q: What about the GI50 [20] of the same compound?
A: > 100 µM (inactive)

Q: What about the GI50 [21] of the same compound?
A: > 100 µM (inactive)

Q: And the GI50 [22]?
A: > 100 µM (inactive)

Q: And the GI50 [23]?
A: > 100 µM (inactive)

Q: What about the GI50 [24] of the same compound?
A: > 100 µM (inactive)

Q: What about the GI50 [25] of the same compound?
A: 71.3 µM (inactive)

Q: And the GI50 [26]?
A: > 100 µM (inactive)

Q: What about the GI50 [27] of the same compound?
A: > 100 µM (inactive)

Q: And the GI50 [28]?
A: > 100 µM (inactive)

Q: What about the GI50 [29] of the same compound?
A: 20.3 µM (inactive)

Q: What about the GI50 [30] of the same compound?
A: > 100 µM (inactive)

Q: And the GI50 [31]?
A: 85.3 µM (inactive)

Q: What about the GI50 [32] of the same compound?
A: > 100 µM (inactive)

Q: What about the GI50 [33] of the same compound?
A: 50.8 µM (inactive)

Q: What about the GI50 [34] of the same compound?
A: 8.32 µM (inactive)

Q: What about the GI50 [35] of the same compound?
A: > 100 µM (inactive)

Q: What about the GI50 [36] of the same compound?
A: 19.2 µM (inactive)

Q: What about the GI50 [37] of the same compound?
A: > 100 µM (inactive)

Q: And the GI50 [38]?
A: > 100 µM (inactive)

Q: And the GI50 [39]?
A: > 100 µM (inactive)

Q: And the GI50 [40]?
A: 86.9 µM (inactive)

Q: And the GI50 [41]?
A: 54.2 µM (inactive)

Q: What about the GI50 [42] of the same compound?
A: > 100 µM (inactive)

Q: And the GI50 [43]?
A: > 100 µM (inactive)

Q: What about the GI50 [44] of the same compound?
A: > 100 µM (inactive)

Q: And the GI50 [45]?
A: > 100 µM (inactive)

Q: What about the GI50 [46] of the same compound?
A: 74 µM (inactive)

Q: And the GI50 [47]?
A: 18.7 µM (inactive)

Q: And the GI50 [48]?
A: > 100 µM (inactive)

Q: What about the GI50 [49] of the same compound?
A: > 100 µM (inactive)

Q: And the GI50 [50]?
A: > 100 µM (inactive)

Q: What about the GI50 [51] of the same compound?
A: > 100 µM (inactive)

Q: And the GI50 [52]?
A: 30.7 µM (inactive)

Q: What about the GI50 [53] of the same compound?
A: > 100 µM (inactive)

Q: What about the GI50 [54] of the same compound?
A: > 100 µM (inactive)

Q: And the GI50 [55]?
A: > 100 µM (inactive)

Q: What does the source list for CCSCC(N)C(=O)O (stereo not drawn)?
A: GI50 [1]: > 100 µM (inactive); GI50 [2]: > 100 µM (inactive); GI50 [3]: > 100 µM (inactive); GI50 [4]: > 100 µM (inactive); GI50 [5]: > 100 µM (inactive); GI50 [6]: > 100 µM (inactive); GI50 [7]: > 100 µM (inactive); GI50 [8]: > 100 µM (inactive); GI50 [9]: > 100 µM (inactive); GI50 [10]: > 100 µM (inactive); GI50 [12]: > 100 µM (inactive); GI50 [13]: > 100 µM; GI50 [14]: > 100 µM (inactive); GI50 [15]: > 100 µM (inactive); GI50 [16]: 0.0337 µM (active); GI50 [17]: > 100 µM (inactive); GI50 [18]: > 100 µM (inactive); GI50 [19]: > 100 µM (inactive); GI50 [21]: > 100 µM (inactive); GI50 [22]: > 100 µM (inactive); GI50 [23]: > 100 µM (inactive); GI50 [24]: > 100 µM (inactive); GI50 [25]: > 100 µM (inactive); GI50 [26]: > 100 µM (inactive); GI50 [27]: > 100 µM (inactive); GI50 [56]: > 100 µM (inactive); GI50 [29]: > 100 µM (inactive); GI50 [30]: > 100 µM (inactive); GI50 [31]: > 100 µM (inactive); GI50 [32]: > 100 µM (inactive); GI50 [33]: > 100 µM (inactive); GI50 [57]: > 100 µM (inactive); GI50 [34]: > 100 µM (inactive); GI50 [35]: > 100 µM (inactive); GI50 [36]: > 100 µM (inactive); GI50 [37]: > 100 µM (inactive); GI50 [58]: > 100 µM (inactive); GI50 [38]: > 100 µM (inactive); GI50 [39]: > 100 µM (inactive); GI50 [40]: > 100 µM (inactive); GI50 [42]: > 100 µM (inactive); GI50 [43]: > 100 µM (inactive); GI50 [44]: > 100 µM (inactive); GI50 [59]: > 100 µM (inactive); GI50 [45]: > 100 µM (inactive); GI50 [46]: > 100 µM (inactive); GI50 [47]: > 100 µM (inactive); GI50 [48]: > 100 µM (inactive); GI50 [49]: > 100 µM (inactive); GI50 [50]: > 100 µM (inactive); GI50 [51]: > 100 µM (inactive); GI50 [52]: > 100 µM (inactive); GI50 [53]: > 100 µM (inactive); GI50 [54]: > 100 µM (inactive); GI50 [55]: > 100 µM (inactive)

Q: For NC(=O)CC(N)C(N)=O (stereo not drawn), which GI50 [1] is on record?
A: > 100 µM (inactive)

Q: What about the GI50 [2] of the same compound?
A: > 100 µM (inactive)

Q: And the GI50 [3]?
A: > 100 µM (inactive)

Q: And the GI50 [4]?
A: > 100 µM (inactive)

Q: And the GI50 [5]?
A: > 100 µM (inactive)

Q: And the GI50 [6]?
A: > 100 µM (inactive)

Q: And the GI50 [7]?
A: > 100 µM (inactive)

Q: And the GI50 [8]?
A: > 100 µM (inactive)

Q: And the GI50 [9]?
A: > 100 µM (inactive)

Q: And the GI50 [12]?
A: > 100 µM (inactive)

Q: And the GI50 [13]?
A: > 100 µM

Q: And the GI50 [14]?
A: > 100 µM (inactive)

Q: And the GI50 [15]?
A: > 100 µM (inactive)

Q: What about the GI50 [16] of the same compound?
A: > 100 µM (inactive)

Q: What about the GI50 [18] of the same compound?
A: > 100 µM (inactive)

Q: What about the GI50 [19] of the same compound?
A: > 100 µM (inactive)

Q: What about the GI50 [20] of the same compound?
A: > 100 µM (inactive)

Q: And the GI50 [21]?
A: > 100 µM (inactive)

Q: What about the GI50 [22] of the same compound?
A: > 100 µM (inactive)

Q: And the GI50 [23]?
A: > 100 µM (inactive)

Q: What about the GI50 [24] of the same compound?
A: > 100 µM (inactive)

Q: What about the GI50 [25] of the same compound?
A: > 100 µM (inactive)

Q: And the GI50 [26]?
A: > 100 µM (inactive)

Q: What about the GI50 [27] of the same compound?
A: > 100 µM (inactive)

Q: And the GI50 [28]?
A: > 100 µM (inactive)

Q: What about the GI50 [56] of the same compound?
A: > 100 µM (inactive)

Q: And the GI50 [29]?
A: > 100 µM (inactive)

Q: What about the GI50 [30] of the same compound?
A: > 100 µM (inactive)

Q: What about the GI50 [31] of the same compound?
A: > 100 µM (inactive)

Q: And the GI50 [32]?
A: > 100 µM (inactive)

Q: What about the GI50 [33] of the same compound?
A: > 100 µM (inactive)

Q: And the GI50 [57]?
A: > 100 µM (inactive)

Q: What about the GI50 [34] of the same compound?
A: > 100 µM (inactive)

Q: What about the GI50 [36] of the same compound?
A: > 100 µM (inactive)

Q: What about the GI50 [37] of the same compound?
A: > 100 µM (inactive)

Q: And the GI50 [58]?
A: > 100 µM (inactive)

Q: And the GI50 [38]?
A: > 100 µM (inactive)

Q: What about the GI50 [40] of the same compound?
A: > 100 µM (inactive)

Q: And the GI50 [41]?
A: > 100 µM (inactive)

Q: What about the GI50 [42] of the same compound?
A: > 100 µM (inactive)

Q: What about the GI50 [43] of the same compound?
A: > 100 µM (inactive)

Q: And the GI50 [44]?
A: > 100 µM (inactive)

Q: And the GI50 [59]?
A: > 100 µM (inactive)

Q: What about the GI50 [45] of the same compound?
A: > 100 µM (inactive)

Q: What about the GI50 [46] of the same compound?
A: > 100 µM (inactive)

Q: What about the GI50 [47] of the same compound?
A: > 100 µM (inactive)

Q: And the GI50 [48]?
A: > 100 µM (inactive)

Q: What about the GI50 [49] of the same compound?
A: > 100 µM (inactive)

Q: And the GI50 [50]?
A: > 100 µM (inactive)

Q: What about the GI50 [51] of the same compound?
A: > 100 µM (inactive)

Q: And the GI50 [52]?
A: > 100 µM (inactive)

Q: And the GI50 [53]?
A: > 100 µM (inactive)

Q: What about the GI50 [54] of the same compound?
A: > 100 µM (inactive)
